Numbered stars: 1 amine (or outer) side, 2 acyl side, 3 side chain; on linkers, the order of the positions; unused ones are H or OH. Bridge positions count the residues as written; N and C are the ends. Peptide text beside a SMILES is read from it. * marks the point of attachment. X1 = O=C(O)CN1CCN(CC(=O)O)CCN(CC(=O)N2CCN(Cc3cc(C[*:1])cc(C[*:2])c3)CC2)CCN(CC(=O)O)CC1; Hexanoyl = CCCCCC(=O)*
Key:
alpha 1A (h) = target: T1, alpha 1A (h) (Homo sapiens, UniProt P35348); assay: biochemical; details: read-out: % Inhibition of Specific Binding
T1 sequence (P35348 1-466): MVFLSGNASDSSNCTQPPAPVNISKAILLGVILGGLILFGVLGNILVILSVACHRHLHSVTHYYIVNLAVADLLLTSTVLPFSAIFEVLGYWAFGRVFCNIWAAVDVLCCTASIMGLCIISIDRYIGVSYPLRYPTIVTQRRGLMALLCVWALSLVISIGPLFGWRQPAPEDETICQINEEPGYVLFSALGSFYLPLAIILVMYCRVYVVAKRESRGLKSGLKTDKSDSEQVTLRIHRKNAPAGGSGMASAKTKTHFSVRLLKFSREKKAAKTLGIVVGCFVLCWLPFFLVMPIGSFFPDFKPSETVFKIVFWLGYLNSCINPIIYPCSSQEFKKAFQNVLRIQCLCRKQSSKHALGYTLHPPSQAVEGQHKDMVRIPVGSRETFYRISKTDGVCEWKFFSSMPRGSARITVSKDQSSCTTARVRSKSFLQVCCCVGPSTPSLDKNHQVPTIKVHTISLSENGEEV

Caspase-9 = Caspase-9 (Homo sapiens, UniProt P55211); assay: biochemical; details: read-out: Percentage inhibition (%)
Sequence of Caspase-9 (P55211 1-315 limits assumed, species assumed): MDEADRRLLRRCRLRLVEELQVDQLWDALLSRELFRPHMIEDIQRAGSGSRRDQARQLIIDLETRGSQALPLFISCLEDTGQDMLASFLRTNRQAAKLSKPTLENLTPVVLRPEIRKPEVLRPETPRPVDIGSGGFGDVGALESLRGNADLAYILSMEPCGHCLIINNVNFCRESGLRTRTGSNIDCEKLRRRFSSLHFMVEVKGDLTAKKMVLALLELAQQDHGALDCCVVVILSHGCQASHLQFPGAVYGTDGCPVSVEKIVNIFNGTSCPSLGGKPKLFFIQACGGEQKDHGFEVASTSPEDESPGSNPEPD
Sequence of Caspase-9 (P55211 331-416 limits assumed, species assumed): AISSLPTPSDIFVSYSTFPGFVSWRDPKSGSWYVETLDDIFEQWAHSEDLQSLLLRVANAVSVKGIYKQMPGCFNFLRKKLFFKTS

GR (h) = GR (h) (Homo sapiens, UniProt P04150); assay: biochemical; details: read-out: % Inhibition of Specific Binding
Sequence of GR (h) (P04150 whole entry): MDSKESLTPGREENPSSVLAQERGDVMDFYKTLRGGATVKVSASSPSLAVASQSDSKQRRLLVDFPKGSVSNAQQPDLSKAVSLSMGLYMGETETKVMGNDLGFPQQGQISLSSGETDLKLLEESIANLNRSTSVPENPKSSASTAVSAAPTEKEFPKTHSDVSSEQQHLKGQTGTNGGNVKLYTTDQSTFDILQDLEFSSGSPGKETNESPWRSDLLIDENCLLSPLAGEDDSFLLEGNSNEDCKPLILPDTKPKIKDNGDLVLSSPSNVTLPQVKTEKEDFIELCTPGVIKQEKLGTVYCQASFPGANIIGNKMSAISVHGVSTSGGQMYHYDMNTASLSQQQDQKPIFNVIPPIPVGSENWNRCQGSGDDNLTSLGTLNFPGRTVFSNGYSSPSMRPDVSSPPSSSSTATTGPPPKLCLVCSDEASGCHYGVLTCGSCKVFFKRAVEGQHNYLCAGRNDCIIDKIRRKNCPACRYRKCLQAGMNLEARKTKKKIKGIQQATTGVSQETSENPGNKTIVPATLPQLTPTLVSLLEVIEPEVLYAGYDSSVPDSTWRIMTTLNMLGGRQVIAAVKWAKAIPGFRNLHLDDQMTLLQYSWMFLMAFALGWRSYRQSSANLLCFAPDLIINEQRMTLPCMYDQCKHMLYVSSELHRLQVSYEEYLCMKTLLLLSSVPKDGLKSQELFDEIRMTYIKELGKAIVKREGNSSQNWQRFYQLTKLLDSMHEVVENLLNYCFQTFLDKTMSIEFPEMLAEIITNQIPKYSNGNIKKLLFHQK

Renin = target: T2, Renin (Homo sapiens, UniProt P00797); assay: biochemical; details: read-out: Percentage inhibition (%)
T2 sequence (P00797 67-406): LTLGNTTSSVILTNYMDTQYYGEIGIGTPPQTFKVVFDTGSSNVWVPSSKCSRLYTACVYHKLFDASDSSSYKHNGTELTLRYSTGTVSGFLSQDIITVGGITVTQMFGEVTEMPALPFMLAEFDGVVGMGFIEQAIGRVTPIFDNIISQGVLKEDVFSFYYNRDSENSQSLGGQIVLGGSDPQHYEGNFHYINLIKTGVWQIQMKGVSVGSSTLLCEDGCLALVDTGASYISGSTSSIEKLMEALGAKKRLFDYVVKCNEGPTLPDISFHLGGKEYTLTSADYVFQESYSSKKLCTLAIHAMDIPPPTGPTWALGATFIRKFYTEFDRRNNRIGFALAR

PDE4D2 (h) = PDE4D2 (h) (Homo sapiens, UniProt Q08499); assay: biochemical; details: read-out: % Inhibition of Specific Binding
Sequence of PDE4D2 (h) (Q08499 303-809): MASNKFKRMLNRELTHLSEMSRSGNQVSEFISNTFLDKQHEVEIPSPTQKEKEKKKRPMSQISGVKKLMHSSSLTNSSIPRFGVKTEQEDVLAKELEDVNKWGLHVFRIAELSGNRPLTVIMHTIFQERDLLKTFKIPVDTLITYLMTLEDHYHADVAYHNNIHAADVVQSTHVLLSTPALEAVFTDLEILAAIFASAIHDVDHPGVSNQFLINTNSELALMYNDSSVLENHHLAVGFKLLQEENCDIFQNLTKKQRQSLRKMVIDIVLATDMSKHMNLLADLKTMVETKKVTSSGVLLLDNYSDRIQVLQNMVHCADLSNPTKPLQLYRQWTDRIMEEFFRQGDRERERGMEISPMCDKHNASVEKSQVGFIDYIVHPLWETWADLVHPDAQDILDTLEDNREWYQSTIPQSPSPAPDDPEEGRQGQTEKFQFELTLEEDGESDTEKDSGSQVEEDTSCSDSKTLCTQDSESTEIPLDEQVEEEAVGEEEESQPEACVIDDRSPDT

Lck kinase (h) = Lck kinase (h) (Homo sapiens, UniProt P06239); assay: biochemical; details: read-out: % Inhibition of Specific Binding
Sequence of Lck kinase (h) (P06239 whole entry): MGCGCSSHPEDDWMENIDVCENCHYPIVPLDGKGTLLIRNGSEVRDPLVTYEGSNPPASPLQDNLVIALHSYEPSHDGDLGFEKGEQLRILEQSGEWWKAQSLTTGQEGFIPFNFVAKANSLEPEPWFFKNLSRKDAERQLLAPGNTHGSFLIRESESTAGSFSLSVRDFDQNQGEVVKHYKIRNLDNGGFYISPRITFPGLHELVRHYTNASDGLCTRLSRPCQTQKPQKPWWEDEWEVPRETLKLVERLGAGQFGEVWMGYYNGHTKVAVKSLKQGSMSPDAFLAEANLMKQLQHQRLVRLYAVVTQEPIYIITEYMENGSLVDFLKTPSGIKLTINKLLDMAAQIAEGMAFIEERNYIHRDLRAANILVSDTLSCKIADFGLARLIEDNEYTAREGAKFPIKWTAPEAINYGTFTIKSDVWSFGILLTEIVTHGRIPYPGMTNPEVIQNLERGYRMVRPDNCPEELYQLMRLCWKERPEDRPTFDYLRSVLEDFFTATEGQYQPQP

CB1 (h) = CB1 (h) (Homo sapiens, UniProt P21554); assay: biochemical; details: read-out: % Inhibition of Specific Binding
M1 (h) = M1 (h) (Homo sapiens, UniProt P11229); assay: biochemical; details: read-out: % Inhibition of Specific Binding
D1 (h) = D1 (h) (Homo sapiens, UniProt P21728); assay: biochemical; details: read-out: % Inhibition of Specific Binding
5-HT2B (h) = 5-HT2B (h) (Homo sapiens, UniProt P41595); assay: biochemical; details: read-out: % Inhibition of Specific Binding
Ataxin3 = Ataxin3 (Homo sapiens, UniProt P54252); assay: biochemical; details: read-out: Percentage inhibition (%)
Sequence of Ataxin3 (P54252 whole entry, species assumed): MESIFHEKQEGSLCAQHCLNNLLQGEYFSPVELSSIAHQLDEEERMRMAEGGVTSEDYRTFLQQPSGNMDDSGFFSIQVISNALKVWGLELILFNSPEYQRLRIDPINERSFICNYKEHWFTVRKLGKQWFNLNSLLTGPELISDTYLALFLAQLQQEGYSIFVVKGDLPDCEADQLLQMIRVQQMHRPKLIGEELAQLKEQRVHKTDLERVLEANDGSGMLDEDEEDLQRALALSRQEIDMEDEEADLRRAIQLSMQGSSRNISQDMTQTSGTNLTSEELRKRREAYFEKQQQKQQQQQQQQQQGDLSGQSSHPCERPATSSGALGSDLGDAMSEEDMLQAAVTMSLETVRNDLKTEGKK

mu (MOP) (h) = mu (MOP) (h) (Homo sapiens, UniProt P35372); assay: biochemical; details: read-out: % Inhibition of Specific Binding
Sequence of mu (MOP) (h) (P35372 whole entry): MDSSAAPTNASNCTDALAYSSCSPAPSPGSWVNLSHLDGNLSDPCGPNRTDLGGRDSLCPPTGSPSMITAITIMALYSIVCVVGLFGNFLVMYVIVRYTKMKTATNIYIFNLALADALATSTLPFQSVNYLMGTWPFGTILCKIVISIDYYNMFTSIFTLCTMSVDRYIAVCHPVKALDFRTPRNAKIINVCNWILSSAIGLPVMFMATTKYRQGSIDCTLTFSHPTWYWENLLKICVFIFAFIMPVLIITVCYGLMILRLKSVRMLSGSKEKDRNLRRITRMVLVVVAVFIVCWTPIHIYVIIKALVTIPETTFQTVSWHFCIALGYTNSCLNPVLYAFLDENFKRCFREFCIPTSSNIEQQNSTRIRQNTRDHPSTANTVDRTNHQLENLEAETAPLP

dopamine transporter (h) = dopamine transporter (h) (Homo sapiens, UniProt Q01959); assay: biochemical; details: read-out: % Inhibition of Specific Binding
Sequence of dopamine transporter (h) (Q01959 whole entry): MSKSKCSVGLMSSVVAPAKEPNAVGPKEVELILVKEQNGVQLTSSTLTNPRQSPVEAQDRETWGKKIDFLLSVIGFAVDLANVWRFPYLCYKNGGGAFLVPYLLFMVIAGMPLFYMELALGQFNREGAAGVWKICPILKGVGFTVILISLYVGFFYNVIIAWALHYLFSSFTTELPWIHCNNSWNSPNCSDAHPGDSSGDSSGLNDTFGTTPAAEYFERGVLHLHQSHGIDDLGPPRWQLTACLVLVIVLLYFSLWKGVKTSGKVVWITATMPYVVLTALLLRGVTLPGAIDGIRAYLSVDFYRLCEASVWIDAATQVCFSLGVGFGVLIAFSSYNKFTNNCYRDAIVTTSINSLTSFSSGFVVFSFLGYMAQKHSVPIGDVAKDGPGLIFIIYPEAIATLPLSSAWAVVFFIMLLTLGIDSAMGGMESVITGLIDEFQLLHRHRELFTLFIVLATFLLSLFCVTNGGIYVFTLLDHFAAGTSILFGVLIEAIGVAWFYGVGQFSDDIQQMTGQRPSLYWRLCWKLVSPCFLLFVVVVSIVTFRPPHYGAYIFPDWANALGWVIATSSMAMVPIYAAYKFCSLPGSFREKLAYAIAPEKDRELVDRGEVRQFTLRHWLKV

V1a (h) = V1a (h) (Homo sapiens, UniProt P37288); assay: biochemical; details: read-out: % Inhibition of Specific Binding
Caspase-8 = Caspase-8 (Homo sapiens, UniProt Q14790); assay: biochemical; details: read-out: Percentage inhibition (%)
Sequence of Caspase-8 (Q14790 217-374 limits assumed, species assumed): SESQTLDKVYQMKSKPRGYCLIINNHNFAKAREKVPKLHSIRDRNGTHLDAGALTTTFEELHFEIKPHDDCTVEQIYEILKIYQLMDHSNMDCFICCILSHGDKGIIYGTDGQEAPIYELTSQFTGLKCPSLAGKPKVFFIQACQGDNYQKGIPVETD
Sequence of Caspase-8 (Q14790 385-479 limits assumed, species assumed): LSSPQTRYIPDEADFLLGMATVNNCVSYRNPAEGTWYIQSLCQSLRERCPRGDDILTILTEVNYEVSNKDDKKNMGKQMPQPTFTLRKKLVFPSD

[1] = target: Ubiquitin carboxyl-terminal hydrolase 7 (Homo sapiens, UniProt Q93009); assay: biochemical; details: read-out: Percentage inhibition (%)
Sequence of Ubiquitin carboxyl-terminal hydrolase 7 (Q93009 whole entry): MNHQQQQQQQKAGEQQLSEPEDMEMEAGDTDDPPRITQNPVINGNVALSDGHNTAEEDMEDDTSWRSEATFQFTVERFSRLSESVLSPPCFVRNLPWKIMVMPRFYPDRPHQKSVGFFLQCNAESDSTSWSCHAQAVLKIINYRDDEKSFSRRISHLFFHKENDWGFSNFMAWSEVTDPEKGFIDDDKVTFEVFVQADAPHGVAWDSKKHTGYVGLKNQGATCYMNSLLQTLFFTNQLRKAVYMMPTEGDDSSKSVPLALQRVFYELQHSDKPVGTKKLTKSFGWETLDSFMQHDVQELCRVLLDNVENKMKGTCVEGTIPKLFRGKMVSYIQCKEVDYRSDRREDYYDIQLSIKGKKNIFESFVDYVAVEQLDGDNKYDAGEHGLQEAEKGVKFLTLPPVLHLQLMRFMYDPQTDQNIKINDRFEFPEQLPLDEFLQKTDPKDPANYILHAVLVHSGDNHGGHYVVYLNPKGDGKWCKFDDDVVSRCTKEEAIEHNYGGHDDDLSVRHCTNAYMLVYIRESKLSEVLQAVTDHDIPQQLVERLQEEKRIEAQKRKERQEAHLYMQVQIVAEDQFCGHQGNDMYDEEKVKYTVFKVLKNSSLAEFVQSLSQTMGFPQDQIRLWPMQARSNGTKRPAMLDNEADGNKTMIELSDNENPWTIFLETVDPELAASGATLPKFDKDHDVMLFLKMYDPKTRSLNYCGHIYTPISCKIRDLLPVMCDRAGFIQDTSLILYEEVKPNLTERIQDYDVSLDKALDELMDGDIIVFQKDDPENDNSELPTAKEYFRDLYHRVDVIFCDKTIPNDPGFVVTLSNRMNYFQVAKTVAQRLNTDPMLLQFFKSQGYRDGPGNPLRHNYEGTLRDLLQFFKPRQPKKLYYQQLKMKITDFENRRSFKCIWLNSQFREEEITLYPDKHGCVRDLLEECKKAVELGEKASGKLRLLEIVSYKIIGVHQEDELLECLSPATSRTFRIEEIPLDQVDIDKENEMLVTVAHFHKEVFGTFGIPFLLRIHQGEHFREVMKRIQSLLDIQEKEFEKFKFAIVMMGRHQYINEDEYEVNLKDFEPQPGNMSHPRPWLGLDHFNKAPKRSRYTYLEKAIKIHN

DPP3 = DPP3 (Homo sapiens, UniProt Q9NY33); assay: biochemical; details: read-out: Percentage inhibition (%)
in vivo = details: mouse, iv; for clearance: in vivo; for AUC(0-inf) / C0 / half-life / Vd: plasma; for Vd: mouse plasma

CCCCCC(=O)N[C@H]1CSCc2cc(cc(CN3CCN(C(=O)CN4CCN(CC(=O)O)CCN(CC(=O)O)CCN(CC(=O)O)CC4)CC3)c2)CSC[C@@H](C(=O)N[C@@H](CC(=O)O)C(N)=O)NC(=O)[C@H](Cc2ccccc2)NC(=O)[C@H](CCC(N)=O)NC(=O)[C@H]([C@@H](C)O)NC(=O)[C@@H]2CCCN2C(=O)[C@@H]2CCCN2C1=O [Compound 3BP-3407, Hex-[Cys(tMeBn(DOTA-PP))-Pro-Pro-Thr-Gln-Phe-Cys]-Asp-NH2] (Hexanoyl-CPPTQFCD-NH2; linker 1-7 via X1) showed an inhibition at 10 µM (alpha 1A (h)) of 2%, an inhibition at 1 µM (Caspase-9) of 5% and an inhibition at 10 µM (Caspase-9) of 8%. For the same compound, the inhibition at 10 µM (GR (h)) was -2%, the inhibition at 1 µM (Renin) was -1% and the inhibition at 10 µM (Renin) was 3%. For the same compound, the inhibition at 10 µM (PDE4D2 (h)) was -5%, the inhibition at 10 µM (Lck kinase (h)) was 10% and the inhibition at 10 µM (CB1 (h)) was 5%. It also gave an inhibition at 10 µM (M1 (h)) of 6%, an inhibition at 10 µM (D1 (h)) of 0% and an inhibition at 10 µM (5-HT2B (h)) of 2%. The inhibition at 1 µM (Ataxin3) was 1%, the inhibition at 10 µM (Ataxin3) was 10% and the inhibition at 10 µM (mu (MOP) (h)) was 2%. For the same compound, the inhibition at 10 µM (dopamine transporter (h)) was 12%, the inhibition at 10 µM (V1a (h)) was 16% and the inhibition at 1 µM (Caspase-8) was 0%. It also gave an inhibition at 10 µM (Caspase-8) of 0%, an inhibition at 1 µM [1] of 5% and an inhibition at 10 µM [1] of 5%.
CCCCCC(=O)N[C@H]1CSCc2cc(CSCCNC(=O)CN3CCN(CC(=O)O)CCN(CC(=O)O)CCN(CC(=O)O)CC3)cc(c2)CSC[C@@H](C(=O)O)NC(=O)[C@H](Cc2ccccc2)NC(=O)[C@H](CCC(N)=O)NC(=O)[C@H]([C@@H](C)O)NC(=O)[C@@H]2CCCN2C(=O)[C@@H]2CCCN2C1=O [Compound 3BP-3554, Hex-[Cys(tMeBn(DOTA-AET))-Pro-Pro-Thr-Gln-Phe-Cys]-OH] gave an inhibition at 1 µM (DPP3) of 2%, an inhibition at 10 µM (DPP3) of -1% and an inhibition at 10 µM (alpha 1A (h)) of -12%. For the same compound, the inhibition at 1 µM (Caspase-9) was -1%, the inhibition at 10 µM (Caspase-9) was -2% and the inhibition at 10 µM (GR (h)) was 0%. For the same compound, the inhibition at 1 µM (Renin) was 0%, the inhibition at 10 µM (Renin) was -1% and the inhibition at 10 µM (PDE4D2 (h)) was -4%. The inhibition at 10 µM (Lck kinase (h)) was -4%, the inhibition at 10 µM (CB1 (h)) was -7% and the inhibition at 10 µM (M1 (h)) was 8%. For the same compound, the clearance (in vivo; 4 nmol/kg) was 8.03 mL/min/kg, the clearance (in vivo; 40 nmol/kg) was 11.8 mL/min/kg and the clearance (in vivo; 400 nmol/kg) was 8.03 mL/min/kg. The AUC(0-inf) (in vivo; 4 nmol/kg) was 0.0083 µM·h, the C0 (in vivo; 4 nmol/kg) was 25.6 nM and the half-life (in vivo; 4 nmol/kg) was 23 min. For the same compound, the Vd (in vivo; 4 nmol/kg, Vss, intravenous 4 nmol/kg) was 0.21 L/kg, the Vd (in vivo; 4 nmol/kg, Vz, intravenous 4 nmol/kg) was 0.26 L/kg and the AUC(0-inf) (in vivo; 40 nmol/kg) was 0.056 µM·h. The C0 (in vivo; 40 nmol/kg) was 177 nM, the half-life (in vivo; 40 nmol/kg) was 59 min and the Vd (in vivo; 40 nmol/kg, Vss, intravenous 40 nmol/kg) was 0.32 L/kg. For the same compound, the Vd (in vivo; 40 nmol/kg, Vz, intravenous 40 nmol/kg) was 1.02 L/kg, the AUC(0-inf) (in vivo; 400 nmol/kg) was 0.961 µM·h and the C0 (in vivo; 400 nmol/kg) was 4970 nM. For the same compound, the half-life (in vivo; 400 nmol/kg) was 40 min, the Vd (in vivo; 400 nmol/kg, Vss, intravenous 400 nmol/kg) was 0.1 L/kg and the Vd (in vivo; 400 nmol/kg, Vz, intravenous 400 nmol/kg) was 0.21 L/kg. It also gave an inhibition at 10 µM (D1 (h)) of 7%, an inhibition at 10 µM (5-HT2B (h)) of 3% and an inhibition at 1 µM (Ataxin3) of 2%. It also gave an inhibition at 10 µM (Ataxin3) of -1%, an inhibition at 10 µM (mu (MOP) (h)) of -10% and an inhibition at 10 µM (dopamine transporter (h)) of 7%. The inhibition at 10 µM (V1a (h)) was 1%, the inhibition at 1 µM (Caspase-8) was 0% and the inhibition at 10 µM (Caspase-8) was -3%. The inhibition at 1 µM [1] was 1% and the inhibition at 10 µM [1] was 1%.

— patent publication US12427210B2, “Compounds comprising a fibroblast activation protein ligand and use thereof” (priority 2019, dated 2025)
